# Test results as given in patent publication US11173140B2, “Dosing regimens of PKC activators” (COGNITIVE RESEARCH ENTERPRISES, INC., priority 2015, dated 2021).
# Columns and labels:
# [1] = target: T1, PKC-ε (Homo sapiens, UniProt Q02156); experiment: Compassionate use study: PKC-ε level in blood; format: in vivo; conditions: advanced AD patient blood, weekly dose of 25 μg/m^2, three consecutive weeks
# T1 construct: from tissue; host or cells: blood of a human advanced Alzheimer's disease patient
# T1 sequence (Q02156 1-737): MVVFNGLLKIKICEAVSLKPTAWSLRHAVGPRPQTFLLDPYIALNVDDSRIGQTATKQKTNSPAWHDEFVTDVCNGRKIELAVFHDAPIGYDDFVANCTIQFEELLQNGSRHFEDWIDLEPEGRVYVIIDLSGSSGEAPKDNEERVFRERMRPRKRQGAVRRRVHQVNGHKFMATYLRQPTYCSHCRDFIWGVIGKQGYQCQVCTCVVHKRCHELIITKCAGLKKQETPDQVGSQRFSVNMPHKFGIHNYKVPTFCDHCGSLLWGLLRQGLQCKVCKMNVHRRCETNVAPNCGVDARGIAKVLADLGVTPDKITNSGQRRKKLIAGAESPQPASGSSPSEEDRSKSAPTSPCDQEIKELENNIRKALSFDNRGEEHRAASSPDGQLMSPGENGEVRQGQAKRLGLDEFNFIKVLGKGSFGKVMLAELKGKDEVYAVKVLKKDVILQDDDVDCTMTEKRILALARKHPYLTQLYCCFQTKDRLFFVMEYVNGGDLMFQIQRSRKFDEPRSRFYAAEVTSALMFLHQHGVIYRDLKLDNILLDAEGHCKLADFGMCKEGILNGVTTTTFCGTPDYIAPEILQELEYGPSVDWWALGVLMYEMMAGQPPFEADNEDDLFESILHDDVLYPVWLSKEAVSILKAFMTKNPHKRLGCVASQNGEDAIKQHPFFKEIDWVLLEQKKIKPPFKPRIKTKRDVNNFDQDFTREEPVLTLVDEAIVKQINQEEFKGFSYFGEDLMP
# Method: (§1) FIG. 1 illustrates, inter alia, the level of PKCε in the blood of a human subject receiving 25 μg/m^2 of bryostatin as a single weekly dose for three consecutive weeks followed by cessation of dosing for one week and then two additional weeks of dosing at 25 μg/m^2.
# (§2) FIG. 1 illustrates early results of a compassionate use (CU) study involving human advanced AD patients. […] The administration comprised three consecutive weeks of dosing followed by cessation for one week and then two additional weeks of dosing. Standard psychometric tests were used to measure cognitive functions and behaviors. The study also evaluated the relationship between the level of bryostatin's target, PKC epsilon, in the blood and the cognitive measurements.
# (§3) Observed improvements included restored speech and word recognition, restored swallowing, lowered or prevented hallucinations, and improved complex motor functions. […] For example, the observed behavioral improvements included restoration of speech and word recognition, restoration of swallowing, disappearance of hallucinations, return of complex motor activity, including swimming, billiards, conversational interactions, and orientation in time and space.
# [2] = test system: advanced AD patients; experiment: Compassionate use study: cognitive function and behavior (MMSE, ADL-siv); format: in vivo, human
# Method: as §1, §2, §3
# The decline closely tracked the decline in PCK-ε levels, as illustrated in FIG. 1. The observed decline was due to a well-known phenomenon that follows PKC activation called “downregulation”. Sustained clinical improvements in these patients with advanced AD were mitigated by the downregulation of the bryostatin target, PKC-ε. From these preliminary observations the inventors hypothesized that an intermittent dosing regimen of bryostatin was more suitable for maintaining cognitive benefits in AD patients.
# [3] = Bryostatin levels in brain and plasma (HPLC-MS), crossing of blood-brain barrier; format: in vivo, mice; conditions: for bryostatin (% of Control), BRAIN: mouse brain; for bryostatin (% of Control), PLASMA: mouse plasma
# Method: FIG. 5 illustrates the steady state concentration of bryostatin in the brain and plasma of mice following intravenous administration at the indicated doses.
# Further evaluation was performed on bryostatin crossing the blood-brain-barrier (BBB) and the steady state levels of bryostatin in the brain and plasma of mice. […] The concentration of bryostatin in mice brain was less than its concentration in plasma.
# In these studies, bryostatin was administered intravenously (i.v.) by injection into the tail vein of a mouse. Stock solutions of bryostatin were prepared in dimethyl sulfoxide (DMSO). Prior to administration to a mouse, the stock DMSO solution of bryostatin was diluted to a predetermined concentration by dilution with phosphate buffered saline/saline (PBS/saline).
# The brain, whole blood, and plasma of mice in each dosing group as well as control mice was collected at 1 hour, 24 hours and 7 days after the last injection of bryostatin. PBMC's were isolated from blood and the brain, blood, plasma and PBMC's were frozen immediately using dry ice. Prior to analysis PBMC's were counted by diluting the sample (10 μl aliquot), 10-fold and the PBMC's counted using a Millipore Scepter cell counter. Every group of test animals had its own control group (N=3). Mice in the control group were injected with vehicle at a frequency similar to the dosing regimen and these animals were sacrificed and tested in parallel with mice in the test group.
# Each measurement was performed four times (X4). BDNF levels were measured using ELISA and the concentration of protein PSD-95 was measured by Western Blot. High performance liquid chromatography-mass spectral analysis was used to measure the concentration of bryostatin in blood and brain samples based on a standard curve. Total protein concentrations were measured Coomassie Plus (Bradford) Protein Assay kit.
# The therapeutic efficacy of bryostatin depends at least in part on its ability to cross the blood-brain-barrier (BBB). To evaluate whether dosing regimen influences the bryostatin levels in brain, mice were administered the drug intravenously. Table 9 illustrates the effect of dose and dosing regimen on bryostatin levels in the brain and plasma of mice. Sporadic dosing increased the levels of bryostatin in brain compared to plasma. See data for mice in cages 9 and 11.
# [4] = advanced AD patients, weekly dose of 25 μg/m^2, three consecutive weeks
# [5] = cage 4: 25 μg/m^2 i.v. once weekly, 3 weeks, 24 h
# [6] = cage 6: 10 μg/m^2 i.v. once weekly, 3 weeks, 24 h
# [7] = cage 9: 25 μg/m^2 i.v., weeks 1 and 3, 24 h
# [8] = cage 11: 25 μg/m^2 i.v., weeks 1 and 2, 7 d delay
compound,measurement,setting,value
CCC/C=C/C=C/C(=O)O[C@H]1/C(=C/C(=O)OC)C[C@H]2C[C@H]([C@@H](C)O)OC(=O)C[C@H](O)C[C@@H]3C[C@H](OC(C)=O)C(C)(C)[C@](O)(C[C@@H]4C/C(=C/C(=O)OC)C[C@H](/C=C/C(C)(C)[C@]1(O)O2)O4)O3 [Bryostatin-1],total PKC-ε levels,[1],increased
same,maintenance of cognitive benefits,"[2]; additional bryostatin dosing in weeks 5, 6 and 8-13",failed to maintain the observed cognitive benefits
same,Activities of Daily Living-Severe Impairment Version (ADL-siv),[2]; [4],improvements
same,Mini-Mental State Examination (MMSE) score,[2]; [4],improvements
same,increase of bryostatin concentration in brain,"[3]; mice, 25 μg/m^2 weekly for three consecutive weeks versus 1 on/1 off or 2 on/1 off",less effective
same,crossing of the blood-brain-barrier,"[3]; mice, intravenous",crossed the BBB
same,plasma concentrations of bryostatin,"[3]; mice, single weekly injection for three consecutive weeks versus 1 on/1 off or 2 on/1 off",greater
same,levels of bryostatin in brain compared to plasma,"[3]; mice, sporadic dosing (cages 9 and 11)",increased
same,"bryostatin (% of Control), BRAIN",[3]; [5],0.0140 % of Control
same,"bryostatin (% of Control), BRAIN",[3]; [6],0.0202 % of Control
same,"bryostatin (% of Control), BRAIN",[3]; [7],0.0197 % of Control
same,"bryostatin (% of Control), BRAIN",[3]; [8],0.0217 % of Control
same,"bryostatin (% of Control), PLASMA",[3]; [5],0.0306 % of Control
same,"bryostatin (% of Control), PLASMA",[3]; [6],0.0287 % of Control
same,"bryostatin (% of Control), PLASMA",[3]; [7],0.0148 % of Control
same,"bryostatin (% of Control), PLASMA",[3]; [8],0.0012 % of Control
